Here are results for one compound from patent US20040127571A1 (UNIVERSITY OF SOUTH FLORIDA, priority 2002, published 2004).

Test [1] has as its system imatinib refractory (resistant) cells. The test is described as follows: Apoptosis of imatinib refractory cells after SAHA. The test is classed as cell-based.
The next test deals with K562 cells. The test is described as follows: Apoptosis of K562 cells after SAHA exposure. Type of test: cell-based. As to conditions: 1.0 to 10.0 uM SAHA for 48 hours; FIG. 2A.
Another test relates to p27 in LAMA cells. The test is described as follows: p27 expression in LAMA cells after SAHA (FIG. 2B). Type of test: cell-based. An excerpt: (§1) Moreover, exposure to SAHA increases the acetylation of histones (H3) and the expression of p21 (FIG. 2B). […] SAHA downregulates the levels and auto-phosphorylation, the addition of a phosphate group, of Bcr-Abl (FIG. 2C).
Another test deals with K562. As to the kind of experiment: Cell cycle distribution of K562 cells after SAHA. As to conditions: 1.0 to 5.0 uM SAHA for 48 hours; dose-dependent. Type of test: cell-based. How it is done: Treatment with 1.0 to 5.0 uM SAHA for 48 hours increased the percentage of K562 in the G1 (the gap in the cell division cycle between mitosis and synthesis) phase of the cell cycle in a dose-dependent manner.

The test system of a further test is Bcr-Abl. As to the kind of experiment: Bcr-Abl levels and auto-phosphorylation after SAHA (FIG. 2C). Type of test: cell-based.
Excerpt: as §1

A further test deals with p27 in K562 cells. As to the kind of experiment: p27 expression in K562 cells after SAHA (FIG. 2B). The test is classed as cell-based.
Excerpt: as §1

The subject of a further test is histones (H3), p21. As to the kind of experiment: Histone acetylation and p21 expression after SAHA (FIG. 2B). The test is classed as cell-based.
Excerpt: as §1

The test system of another test is p27 (gene). As to conditions: previously shown; cited from earlier work.
The subject of another test is Lama-84 cells. As to the kind of experiment: Apoptosis of Lama-84 cells after SAHA exposure. The test is classed as cell-based. As to conditions: 1.0 to 10.0 uM SAHA for 48 hours; FIG. 2A.

As to `O=C(CCCCCCC(=O)Nc1ccccc1)NO` [SAHA, Suberoylanilide Hydromaxic Acid], in test [1], the “apoptosis in imatinib refractory (resistant) cells” value is given as “induces apoptosis”. Also, the “apoptosis of K562 cells” value in the test on K562 cells is listed as “dose-dependent increase”. Also, the p27 expression result in the test on p27 in LAMA cells was “induced p27 expression”. For the same compound, in the test on K562, the “percentage of K562 in the G1 phase of the cell cycle” value is on record as “increased”. For the same compound, in the test on Bcr-Abl, the “auto-phosphorylation of Bcr-Abl” value is “downregulates” and the “levels of Bcr-Abl” value was “downregulates”. Further, the p27 expression result in the test on p27 in K562 cells was “induced p27 expression”. In the test with histones (H3), p21, the “acetylation of histones (H3)” value is “increases” and the “expression of p21” value was “increases”. Further, the “acetylation of histones of the chromatin associated with p27 (gene) / its transcription” value with p27 (gene) is “not to induce acetylation”. For the same compound, the “apoptosis of Lama-84 cells” value in the test on Lama-84 cells is recorded as “dose-dependent increase”.
